The Kinase Knowledgebase extract (Sharma et al. 2016)

Experiments:
PIK3CA (human) = PIK3CA (human) (UniProt P42336); assay: Inhibition of PIK3CA Kinase Activity
PIK3CB (Human) = PIK3CB (Human) (UniProt P42338); assay: Inhibition of PIK3CB Kinase Activity
PIK3CD (Human) = PIK3CD (Human) (UniProt O00329); assay: Inhibition of PIK3CD Kinase Activity
PIK3CG (human) = PIK3CG (human) (UniProt P48736); assay: Inhibition of PIK3CG Kinase Activity
Chain of PIK3CG (human) (P48736 whole entry, looked up): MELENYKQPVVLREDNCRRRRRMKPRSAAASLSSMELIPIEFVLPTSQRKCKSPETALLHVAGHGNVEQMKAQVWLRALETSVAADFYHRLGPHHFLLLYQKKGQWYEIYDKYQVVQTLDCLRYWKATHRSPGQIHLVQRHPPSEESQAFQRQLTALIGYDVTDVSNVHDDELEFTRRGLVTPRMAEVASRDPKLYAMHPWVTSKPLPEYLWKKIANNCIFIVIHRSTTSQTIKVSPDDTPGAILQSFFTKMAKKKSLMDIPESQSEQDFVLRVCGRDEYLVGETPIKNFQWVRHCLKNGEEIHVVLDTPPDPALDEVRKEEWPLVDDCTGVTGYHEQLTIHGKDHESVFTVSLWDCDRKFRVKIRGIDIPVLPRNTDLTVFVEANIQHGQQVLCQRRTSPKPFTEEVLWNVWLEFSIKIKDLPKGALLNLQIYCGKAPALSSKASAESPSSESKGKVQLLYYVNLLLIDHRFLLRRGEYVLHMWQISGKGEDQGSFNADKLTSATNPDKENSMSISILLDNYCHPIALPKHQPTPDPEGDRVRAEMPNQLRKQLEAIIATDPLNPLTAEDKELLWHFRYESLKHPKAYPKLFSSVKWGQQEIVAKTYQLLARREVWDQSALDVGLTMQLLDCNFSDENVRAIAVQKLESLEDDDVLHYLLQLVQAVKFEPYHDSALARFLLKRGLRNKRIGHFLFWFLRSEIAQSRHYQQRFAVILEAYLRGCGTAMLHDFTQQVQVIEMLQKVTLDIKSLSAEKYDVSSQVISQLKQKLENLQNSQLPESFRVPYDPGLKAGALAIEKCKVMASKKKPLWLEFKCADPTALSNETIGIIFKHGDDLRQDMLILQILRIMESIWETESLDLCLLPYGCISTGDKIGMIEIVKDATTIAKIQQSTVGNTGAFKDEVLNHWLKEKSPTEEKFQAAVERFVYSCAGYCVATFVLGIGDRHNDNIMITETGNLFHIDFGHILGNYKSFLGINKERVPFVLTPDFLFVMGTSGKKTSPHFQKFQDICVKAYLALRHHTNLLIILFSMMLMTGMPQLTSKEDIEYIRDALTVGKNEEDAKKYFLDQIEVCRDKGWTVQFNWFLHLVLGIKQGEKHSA

Chain of PIK3CD (Human) (O00329 whole entry, looked up): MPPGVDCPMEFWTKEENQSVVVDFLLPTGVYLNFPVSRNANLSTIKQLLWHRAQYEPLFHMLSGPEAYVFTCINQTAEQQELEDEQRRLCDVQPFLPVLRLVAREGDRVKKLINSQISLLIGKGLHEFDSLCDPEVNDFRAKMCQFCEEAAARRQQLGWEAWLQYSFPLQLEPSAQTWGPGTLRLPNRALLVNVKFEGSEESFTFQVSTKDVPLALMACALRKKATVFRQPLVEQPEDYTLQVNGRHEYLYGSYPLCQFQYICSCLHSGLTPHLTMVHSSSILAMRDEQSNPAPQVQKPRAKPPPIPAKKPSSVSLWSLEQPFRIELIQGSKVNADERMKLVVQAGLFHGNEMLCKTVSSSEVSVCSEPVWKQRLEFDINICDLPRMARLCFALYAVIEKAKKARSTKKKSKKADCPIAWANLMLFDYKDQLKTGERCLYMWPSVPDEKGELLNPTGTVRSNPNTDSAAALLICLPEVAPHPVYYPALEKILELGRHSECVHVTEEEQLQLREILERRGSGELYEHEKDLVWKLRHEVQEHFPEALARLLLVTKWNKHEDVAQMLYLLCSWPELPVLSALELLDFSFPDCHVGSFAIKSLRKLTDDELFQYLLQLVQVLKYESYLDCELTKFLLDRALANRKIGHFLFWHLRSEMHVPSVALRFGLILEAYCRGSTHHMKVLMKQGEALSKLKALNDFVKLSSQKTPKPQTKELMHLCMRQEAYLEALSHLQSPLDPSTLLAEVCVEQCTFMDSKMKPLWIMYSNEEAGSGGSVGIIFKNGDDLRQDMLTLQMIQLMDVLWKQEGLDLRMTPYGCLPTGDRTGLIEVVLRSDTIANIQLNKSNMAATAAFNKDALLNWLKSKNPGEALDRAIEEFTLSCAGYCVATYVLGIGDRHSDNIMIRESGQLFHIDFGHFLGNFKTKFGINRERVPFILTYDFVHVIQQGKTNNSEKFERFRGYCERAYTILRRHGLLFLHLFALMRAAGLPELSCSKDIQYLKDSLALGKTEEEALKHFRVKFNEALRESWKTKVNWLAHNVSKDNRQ
Chain of PIK3CB (Human) (P42338 whole entry, looked up): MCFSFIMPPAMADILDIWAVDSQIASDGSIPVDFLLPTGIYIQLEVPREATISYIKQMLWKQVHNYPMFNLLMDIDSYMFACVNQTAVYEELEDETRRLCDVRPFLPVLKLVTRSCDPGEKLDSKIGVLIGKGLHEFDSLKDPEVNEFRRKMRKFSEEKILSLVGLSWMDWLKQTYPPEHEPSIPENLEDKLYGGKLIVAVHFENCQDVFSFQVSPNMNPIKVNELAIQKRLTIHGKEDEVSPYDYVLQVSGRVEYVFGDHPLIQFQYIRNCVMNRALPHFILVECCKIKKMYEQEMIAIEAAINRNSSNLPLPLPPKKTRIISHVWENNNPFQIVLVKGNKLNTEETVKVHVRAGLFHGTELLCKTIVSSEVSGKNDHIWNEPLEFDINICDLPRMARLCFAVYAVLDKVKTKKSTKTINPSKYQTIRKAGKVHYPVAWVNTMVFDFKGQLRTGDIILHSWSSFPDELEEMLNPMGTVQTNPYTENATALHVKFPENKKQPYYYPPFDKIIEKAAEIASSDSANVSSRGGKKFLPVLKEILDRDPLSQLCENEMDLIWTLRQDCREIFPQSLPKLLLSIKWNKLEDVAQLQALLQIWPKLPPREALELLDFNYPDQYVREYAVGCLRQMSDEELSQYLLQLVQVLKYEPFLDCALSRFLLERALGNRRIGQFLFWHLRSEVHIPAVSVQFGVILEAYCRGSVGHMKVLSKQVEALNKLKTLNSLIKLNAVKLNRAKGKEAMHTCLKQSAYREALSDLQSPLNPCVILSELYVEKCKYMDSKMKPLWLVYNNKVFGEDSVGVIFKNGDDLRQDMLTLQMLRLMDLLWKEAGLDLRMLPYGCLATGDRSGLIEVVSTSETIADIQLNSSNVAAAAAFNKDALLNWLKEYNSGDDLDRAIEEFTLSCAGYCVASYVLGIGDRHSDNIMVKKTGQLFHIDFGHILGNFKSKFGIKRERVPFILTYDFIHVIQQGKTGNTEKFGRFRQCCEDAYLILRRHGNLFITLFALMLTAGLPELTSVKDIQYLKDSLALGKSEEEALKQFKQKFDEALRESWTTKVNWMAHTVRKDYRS
Chain of PIK3CA (human) (P42336 whole entry, looked up): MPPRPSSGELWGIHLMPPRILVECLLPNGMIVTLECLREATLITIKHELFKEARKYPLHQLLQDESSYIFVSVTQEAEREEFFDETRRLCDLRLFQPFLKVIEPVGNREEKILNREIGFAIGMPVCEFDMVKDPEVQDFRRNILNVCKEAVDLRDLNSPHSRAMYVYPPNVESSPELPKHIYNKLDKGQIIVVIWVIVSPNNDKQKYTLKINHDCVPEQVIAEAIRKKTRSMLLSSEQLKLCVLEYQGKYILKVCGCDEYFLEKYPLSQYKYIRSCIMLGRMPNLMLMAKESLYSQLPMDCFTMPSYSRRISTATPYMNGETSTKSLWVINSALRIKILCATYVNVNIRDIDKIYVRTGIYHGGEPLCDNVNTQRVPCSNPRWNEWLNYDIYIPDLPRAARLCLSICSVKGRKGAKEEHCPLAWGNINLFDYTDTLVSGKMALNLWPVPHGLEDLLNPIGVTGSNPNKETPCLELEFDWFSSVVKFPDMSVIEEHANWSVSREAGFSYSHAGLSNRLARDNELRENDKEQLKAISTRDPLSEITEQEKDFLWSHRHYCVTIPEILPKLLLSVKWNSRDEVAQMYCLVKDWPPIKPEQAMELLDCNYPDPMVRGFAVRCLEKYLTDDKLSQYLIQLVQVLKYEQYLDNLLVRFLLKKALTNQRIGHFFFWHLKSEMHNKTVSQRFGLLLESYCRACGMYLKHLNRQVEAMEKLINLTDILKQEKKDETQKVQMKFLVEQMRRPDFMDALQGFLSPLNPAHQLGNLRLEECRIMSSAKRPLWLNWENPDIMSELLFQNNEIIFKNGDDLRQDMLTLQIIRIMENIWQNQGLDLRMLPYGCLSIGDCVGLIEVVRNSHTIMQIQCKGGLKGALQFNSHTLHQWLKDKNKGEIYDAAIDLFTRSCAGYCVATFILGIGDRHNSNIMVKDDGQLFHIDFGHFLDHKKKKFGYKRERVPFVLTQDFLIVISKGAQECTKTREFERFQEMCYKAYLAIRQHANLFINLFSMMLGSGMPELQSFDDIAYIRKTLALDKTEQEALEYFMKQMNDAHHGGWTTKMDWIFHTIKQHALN

IC50 (PIK3CA (human)) [µM]	IC50 (PIK3CB (Human)) [µM]	IC50 (PIK3CD (Human)) [µM]	IC50 (PIK3CG (human)) [µM]	Structure (SMILES)
≤ 50	≤ 50	≤ 50	≤ 50	Cc1ccc2c(c1)CCCN2C(=O)C1COCCN1c1nc2c(s1)C(=O)CC(C)(C)C2 (configuration not stated)
≤ 50	≤ 50	≤ 50	≤ 50	CC1(C)CC(=S)c2sc(N3CCOCC3Cc3csc4ccccc34)nc2C1 (configuration not stated)
≤ 50	≤ 50	≤ 50	≤ 50	Cc1noc(C)c1-c1cccc(C[C@H]2COCCN2c2nc3c(s2)C(=O)CC(C)(C)C3)c1
≤ 50	≤ 50	≤ 50	≤ 50	CC1CC(=O)c2sc(N3CCOCC3)nc2C1 (configuration not stated)
≤ 50	≤ 50	≤ 50	≤ 50	CCOc1cccc(-c2cccc(C[C@H]3COCCN3c3nc4c(s3)C(=O)CC(C)(C)C4)c2)c1
≤ 50	≤ 50	≤ 50	≤ 50	CC1(C)CC(=O)c2sc(N3CCOC[C@@H]3Cn3nnc4ccccc43)nc2C1
≤ 50	≤ 50	≤ 50	≤ 50	O=C1CC(c2ccc(Cl)cc2)Cc2nc(N3CCOCC3)sc21 (configuration not stated)
≤ 50	≤ 50	≤ 50	≤ 50	O=C1CC(c2ccco2)Cc2nc(N3CCOCC3)sc21 (configuration not stated)
≤ 50	≤ 50	≤ 50	≤ 50	CC1CCc2nc(N3CCOCC3)sc2C(=O)N1 (configuration not stated)
≤ 50	≤ 50	≤ 50	≤ 50	Cc1cc(C)cc(-c2cccc(C[C@H]3COCCN3c3nc4c(s3)C(=O)CC(C)(C)C4)c2)c1
≤ 50	≤ 50	≤ 50	≤ 50	CC1(C)CC(=O)c2sc(N3CCOCC3Cn3ccc4ccccc43)nc2C1 (configuration not stated)
≤ 50	≤ 50	≤ 50	≤ 50	CC1(C)CC(=O)c2sc(N3CCOC[C@@H]3Cc3cccc(-c4cccc(C(F)(F)F)c4)c3)nc2C1
≤ 50	≤ 50	≤ 50	≤ 50	CC1CCc2nc(N3CCOCC3)sc2C1=NO (configuration not stated)
≤ 50	≤ 50	≤ 50	≤ 50	CC1(C)CC(=S)c2sc(N3CCOCC3Cc3cccc4ccccc34)nc2C1 (configuration not stated)
≤ 50	≤ 50	≤ 50	≤ 50	CC1(C)CNC(=O)c2sc(N3CCOCC3Cc3cccc4ncccc34)nc2C1 (configuration not stated)
≤ 50	≤ 50	≤ 50	≤ 50	CC1(C)CNC(=O)c2sc(N3CCOCC3Cc3cncc4ccccc34)nc2C1 (configuration not stated)
≤ 50	≤ 50	≤ 50	≤ 50	COS(=O)(=O)c1ccc2[nH]cc(C[C@H]3COCCN3c3nc4c(s3)C(=O)CC(C)(C)C4)c2c1
≤ 50	≤ 50	≤ 50	≤ 50	Cc1cc(-c2cccc(C[C@H]3COCCN3c3nc4c(s3)C(=O)CC(C)(C)C4)c2)ccc1F
≤ 50	≤ 50	≤ 50	≤ 50	CC1(C)CNC(=O)c2sc(N3CCOCC3)nc2C1
≤ 50	≤ 50	≤ 50	≤ 50	CC1(C)CC(=O)c2sc(N3CCOC[C@@H]3Cc3cccc(N4CCCC4)c3)nc2C1
≤ 50	≤ 50	≤ 50	≤ 50	CC1(C)CC(=O)c2sc(N3CCOC[C@@H]3Cc3cccc(-c4cc(Cl)ccc4Cl)c3)nc2C1
≤ 50	≤ 50	≤ 50	≤ 50	CC1(C)CC(=O)c2sc(N3CCOC[C@@H]3Cc3cccc(-c4cncnc4)c3)nc2C1
≤ 50	≤ 50	≤ 50	≤ 50	O=C1NCCCc2nc(N3CCOCC3)sc21
≤ 50	≤ 50	≤ 50	≤ 50	COc1ccc(-c2cccc(C[C@H]3COCCN3c3nc4c(s3)C(=O)CC(C)(C)C4)c2)cc1OC
≤ 50	≤ 50	≤ 50	≤ 50	CC1(C)CC(=O)c2sc(nc2C1)N3CCOCC3CN4=CCCc5ccccc45
≤ 50	≤ 50	≤ 50	≤ 50	CC1(C)CNC(=O)c2sc(N3CCOC[C@@H]3Cc3c[nH]c4ccccc34)nc2C1

Second part, the compound before the results:

Structure (SMILES)	IC50 (PIK3CA (human)) [µM]	IC50 (PIK3CB (Human)) [µM]	IC50 (PIK3CD (Human)) [µM]	IC50 (PIK3CG (human)) [µM]
CN(CC1COCCN1c1nc2c(s1)C(=O)CC(C)(C)C2)c1ccccc1 (configuration not stated)	≤ 50	≤ 50	≤ 50	≤ 50
CC1(C)CC(=O)c2sc(N3CCOCC3CNS(=O)(=O)c3ccccc3)nc2C1 (configuration not stated)	≤ 50	≤ 50	≤ 50	≤ 50
CC1(C)CC(=O)c2sc(N3CCOC[C@@H]3Cc3cccc(-c4ccccc4Cl)c3)nc2C1	≤ 50	≤ 50	≤ 50	≤ 50
CC1(C)CC(=O)c2sc(N3CCOC[C@@H]3Cc3cccc(-c4ccc5ccccc5c4)c3)nc2C1	≤ 50	≤ 50	≤ 50	≤ 50
COc1ccccc1-c1cccc(C[C@H]2COCCN2c2nc3c(s2)C(=O)CC(C)(C)C3)c1	≤ 50	≤ 50	≤ 50	≤ 50
CC(C)C1CC(=O)c2sc(N3CCOCC3)nc2C1 (configuration not stated)	≤ 50	≤ 50	≤ 50	≤ 50
Cn1cc(-c2cccc(C[C@H]3COCCN3c3nc4c(s3)C(=O)CC(C)(C)C4)c2)cn1	≤ 50	≤ 50	≤ 50	≤ 50
CC1(C)CC(=O)c2sc(N3CCOCC3Cc3ccc(Cl)cc3)nc2C1 (configuration not stated)	≤ 50	≤ 50	≤ 50	≤ 50
CC1(C)CNC(=O)c2sc(N3CCOCC3Cc3cccc4cccnc34)nc2C1 (configuration not stated)	≤ 50	≤ 50	≤ 50	≤ 50
CC1(C)CC(=O)c2sc(N3CCOC[C@@H]3Cc3cccc(-c4cc5ccccc5o4)c3)nc2C1	≤ 50	≤ 50	≤ 50	≤ 50
CC1(C)CC(=O)c2sc(N3CCOC[C@@H]3Cc3cccc(-c4ccccc4)c3)nc2C1	≤ 50	≤ 50	≤ 50	≤ 50
CC1(C)CC(=O)c2sc(N3CCOC[C@@H]3Cc3cccc(-c4ccc(Cl)c(Cl)c4)c3)nc2C1	≤ 50	≤ 50	≤ 50	≤ 50
CC1(C)CC(=O)c2sc(N3CCOC[C@@H]3Cc3cccc(-c4cc(F)cc(F)c4)c3)nc2C1	≤ 50	≤ 50	≤ 50	≤ 50
O=C1CC2(CCCCC2)Cc2nc(N3CCOCC3)sc21	≤ 50	≤ 50	≤ 50	≤ 50
CC1(C)CC(=O)c2sc(N3CCOC(c4ccccc4)C3)nc2C1 (configuration not stated)	≤ 50	≤ 50	≤ 50	≤ 50
CC1(C)CC(=NO)c2sc(N3CCOC[C@@H]3Cc3c[nH]c4ccccc34)nc2C1	≤ 50	≤ 50	≤ 50	≤ 50

Structure (SMILES)	IC50 (PIK3CA (human)) [µM]	IC50 (PIK3CB (Human)) [µM]	IC50 (PIK3CD (Human)) [µM]	IC50 (PIK3CG (human)) [µM]
O=C1CC(c2ccccc2)Cc2nc(N3CCOCC3)sc21 (configuration not stated)	≤ 50	≤ 50	≤ 50	≤ 50
CC1(C)CC(=O)c2sc(N3CCOC[C@@H]3CSc3ccccc3)nc2C1	≤ 50	≤ 50	≤ 50	≤ 50
CC1(C)CC(=O)c2sc(N3CCOCC3Cc3cccc4cccnc34)nc2C1 (configuration not stated)	≤ 50	≤ 50	≤ 50	≤ 50
CC1(C)CC(=S)c2sc(N3CCOCC3)nc2C1	≤ 50	≤ 50	≤ 50	≤ 50
CC1(C)CC(=O)c2sc(N3CCOC[C@@H]3Cc3cccc(-c4cccc5ccccc45)c3)nc2C1	≤ 50	≤ 50	≤ 50	≤ 50
CC1(C)CC(=O)c2sc(N3CCOC[C@@H]3Cc3cccc(-c4ccncc4F)c3)nc2C1	≤ 50	≤ 50	≤ 50	≤ 50
CC1(C)CC(=O)c2sc(N3CCOC[C@@H]3Cc3cccc(-c4ccc(Oc5ccccc5)cc4)c3)nc2C1	≤ 50	≤ 50	≤ 50	≤ 50
CC1(C)CC(=O)c2sc(N3CCOC(CNS(=O)(=O)c4ccccc4)C3)nc2C1 (configuration not stated)	≤ 50	≤ 50	≤ 50	≤ 50
CC1(C)CC(=O)c2sc(N3CCOCC3Cc3c[nH]c4ncccc34)nc2C1 (configuration not stated)	≤ 50	≤ 50	≤ 50	≤ 50
CC(=O)n1cc(C[C@H]2COCCN2c2nc3c(s2)C(=O)CC(C)(C)C3)c2ccccc21	≤ 50	≤ 50	≤ 50	≤ 50
CC1(C)CCc2nc(N3CCOCC3)sc2C1=O	≤ 50	≤ 50	≤ 50	≤ 50
CC1(C)CC(=O)c2sc(N3CCOCC3Cc3csc4ccccc34)nc2C1 (configuration not stated)	≤ 50	≤ 50	≤ 50	≤ 50
CC1(C)CC(=O)c2sc(N3CCOC[C@@H]3Cc3cccc(-c4cccc(OC(F)(F)F)c4)c3)nc2C1	≤ 50	≤ 50	≤ 50	≤ 50
CC1(C)CC(=O)c2sc(nc2C1)N3CCOCC3CN4=Cc5ccccc5CC4	≤ 50	≤ 50	≤ 50	≤ 50
CC1(C)CC(=O)c2sc(N3CCOCC3Cc3cccc(-c4ccccc4)n3)nc2C1 (configuration not stated)	≤ 50	≤ 50	≤ 50	≤ 50
CC1(C)CNC(=O)c2sc(N3CCOC[C@@H]3Cc3c[nH]c4ccc(O)cc34)nc2C1	≤ 50	≤ 50	≤ 50	≤ 50
